Where two headings read alike, the source gives them in different places.
Columns and labels:
[1] = test system: Stem cells; assay: 384-well screen of small molecule compounds for Stage 1 differentiation to Sox17-positive definitive endoderm cells (immunostaining, DAPI); settings: for signal in Oct 4 channel / signal in Sox17 channel: 10 ng/mL AA plus test compound, about 8 concentrations, dose-responsive manner; for Relative to 100 ng/mL AA (percentage of Sox17-positive cells normalized by the percentage with 100 ng/mL AA): Stage 1 condition with 10 ng/mL AA and the test compound, 384-well plates; for nuclear blebbing in the resulting cell population: visual inspection
[2] = target: EZH2 (Homo sapiens, UniProt Q15910); settings: cited from earlier work
[3] = test system: Stem cells

Sequence of EZH2 (Q15910 whole entry, species assumed): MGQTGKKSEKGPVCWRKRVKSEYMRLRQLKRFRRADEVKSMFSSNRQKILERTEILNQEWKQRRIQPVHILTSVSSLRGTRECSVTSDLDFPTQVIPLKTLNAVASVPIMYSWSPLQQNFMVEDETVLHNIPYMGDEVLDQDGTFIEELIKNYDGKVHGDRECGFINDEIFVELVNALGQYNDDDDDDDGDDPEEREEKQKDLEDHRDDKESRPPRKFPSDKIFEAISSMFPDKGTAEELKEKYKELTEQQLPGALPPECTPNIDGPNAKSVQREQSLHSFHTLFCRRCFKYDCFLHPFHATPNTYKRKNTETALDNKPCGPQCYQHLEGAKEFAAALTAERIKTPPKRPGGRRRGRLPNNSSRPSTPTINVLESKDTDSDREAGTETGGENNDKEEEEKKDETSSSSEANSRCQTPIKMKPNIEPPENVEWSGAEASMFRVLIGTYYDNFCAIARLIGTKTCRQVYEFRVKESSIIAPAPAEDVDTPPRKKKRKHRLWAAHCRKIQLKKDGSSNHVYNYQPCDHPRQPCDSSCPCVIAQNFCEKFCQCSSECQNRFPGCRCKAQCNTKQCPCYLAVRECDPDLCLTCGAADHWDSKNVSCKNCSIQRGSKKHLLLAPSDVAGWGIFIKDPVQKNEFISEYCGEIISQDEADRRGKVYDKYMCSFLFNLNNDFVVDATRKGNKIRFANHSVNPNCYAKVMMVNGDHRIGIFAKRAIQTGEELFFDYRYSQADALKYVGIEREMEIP
Sequence of EZH2 (O75530 whole entry partner, species assumed): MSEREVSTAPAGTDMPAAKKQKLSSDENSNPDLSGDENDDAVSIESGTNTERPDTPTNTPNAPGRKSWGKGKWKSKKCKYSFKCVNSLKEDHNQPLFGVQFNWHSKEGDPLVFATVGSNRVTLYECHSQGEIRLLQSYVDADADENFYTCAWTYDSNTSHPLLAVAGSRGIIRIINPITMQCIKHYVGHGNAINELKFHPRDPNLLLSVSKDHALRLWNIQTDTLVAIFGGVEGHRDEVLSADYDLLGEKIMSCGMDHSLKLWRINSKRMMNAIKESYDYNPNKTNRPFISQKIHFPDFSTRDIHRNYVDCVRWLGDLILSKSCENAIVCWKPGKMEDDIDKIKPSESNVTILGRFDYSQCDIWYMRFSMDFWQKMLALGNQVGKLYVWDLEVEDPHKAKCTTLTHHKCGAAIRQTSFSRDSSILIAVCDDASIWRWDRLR
Sequence of EZH2 (Q15022 whole entry partner, species assumed): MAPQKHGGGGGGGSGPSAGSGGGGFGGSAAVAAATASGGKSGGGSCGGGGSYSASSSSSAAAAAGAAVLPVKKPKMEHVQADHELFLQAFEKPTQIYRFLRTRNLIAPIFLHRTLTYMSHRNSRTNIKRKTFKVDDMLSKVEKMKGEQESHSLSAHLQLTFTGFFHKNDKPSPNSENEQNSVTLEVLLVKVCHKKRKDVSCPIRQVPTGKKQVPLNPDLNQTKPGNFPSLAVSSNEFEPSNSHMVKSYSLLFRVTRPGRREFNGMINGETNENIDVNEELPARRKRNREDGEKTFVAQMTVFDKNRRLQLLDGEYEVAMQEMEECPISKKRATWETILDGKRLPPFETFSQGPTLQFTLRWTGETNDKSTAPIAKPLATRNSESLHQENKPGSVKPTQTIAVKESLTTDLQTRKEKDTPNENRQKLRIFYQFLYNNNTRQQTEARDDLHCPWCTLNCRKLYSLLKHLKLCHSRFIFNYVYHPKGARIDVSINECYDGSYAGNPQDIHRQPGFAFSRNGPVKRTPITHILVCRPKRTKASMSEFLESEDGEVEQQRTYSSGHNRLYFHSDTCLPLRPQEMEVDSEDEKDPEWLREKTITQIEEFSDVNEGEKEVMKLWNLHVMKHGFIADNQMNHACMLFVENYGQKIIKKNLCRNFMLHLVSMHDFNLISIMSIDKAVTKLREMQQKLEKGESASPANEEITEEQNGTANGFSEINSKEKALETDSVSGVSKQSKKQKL

nuclear blebbing in the resulting cell population [1] | Structure (SMILES) | signal in Oct 4 channel [1] | signal in Sox17 channel [1] | Relative to 100 ng/mL AA (percentage of Sox17-positive cells normalized by the percentage with 100 ng/mL AA) [1] [%] | selectivity over EZH1 ([2]; EZH2 vs EZH1) [fold] | nuclear blebbing in the resulting cell population [3] | selectivity compared with GSK126 [2]
not to induce | COc1ccc(-c2ccc3c(N4CCOC[C@@H]4C)nc(N4CCOC[C@@H]4C)nc3n2)cc1CO [AZD8055] | decrease | increase | 117 | – | – | –
not to induce | Nc1nc(-c2nn(Cc3ccccc3F)c3ncccc23)ncc1C1CC1 [BAY 41-2272] | decrease | increase | 145 | – | – | –
not to induce | CCN1CCN(Cc2ccc(C(=O)Nc3ccc(C)c(Oc4ccc5c(c4)CC(=O)N5)c3)cc2C(F)(F)F)CC1 [DDR1-IN-1] | decrease | increase | 120 | – | – | –
not to induce | Cc1c(CN2CCN(S(C)(=O)=O)CC2)sc2c(N3CCOCC3)nc(-c3cnc(N)nc3)nc12 [GNE-477] | decrease | increase | 160 | – | – | –
not to induce | CC(C)n1c([C@H](C)Nc2ncnc(N)c2C#N)cc2cccc(-c3ccc(=O)n(C)c3)c2c1=O [IPI-3063] | decrease | increase | 130 | – | – | –
not to induce | CC(C)N1CCN(Cc2cnc(-c3cc(-c4cccc5[nH]ccc45)cc4[nH]ncc34)o2)CC1 [Nemiralisib] | decrease | increase | – | – | – | –
not to induce | COc1ncc(-c2ccc3nccc(-c4ccnnc4)c3c2)cc1NS(=O)(=O)c1ccc(F)cc1F [Omipalisib] | decrease | increase | 75 | – | – | –
not to induce | COc1ccc(-c2sc(NC(=O)C(C)(C)C)nc2C)cc1S(=O)(=O)Nc1ccc(O)cc1 [PI4KIIIbeta-IN-10] | decrease | increase | – | – | – | –

Further lines, the compound ahead of its results:

Structure (SMILES) | nuclear blebbing in the resulting cell population [1] | signal in Oct 4 channel [1] | signal in Sox17 channel [1] | Relative to 100 ng/mL AA (percentage of Sox17-positive cells normalized by the percentage with 100 ng/mL AA) [1] [%] | selectivity over EZH1 ([2]; EZH2 vs EZH1) [fold] | nuclear blebbing in the resulting cell population [3] | selectivity compared with GSK126 [2]
Cc1c(CN2CCN(C(=O)[C@H](C)O)CC2)sc2c(N3CCOCC3)nc(-c3cnc(N)nc3)nc12 [Apitolisib] | – | – | – | 168 | – | – | –
O=C(c1ccc(-c2nc3ccc(F)cc3o2)cc1)N1CCN(C(=O)C2(O)CC2)CC1 [FT113] | – | – | – | 64 | – | – | –
CC[C@H](C)n1cc(C)c2c(C(=O)NCc3c(C)cc(C)[nH]c3=O)cc(-c3ccc(N4CCNCC4)nc3)cc21 [GSK126] | – | – | – | – | 150 | – | –
O=C(Nc1cccc2cccnc12)c1ccc(N2C(=O)[C@@H]3[C@H](C2=O)[C@@H]2C=C[C@H]3C2)cc1 [IWR-1-endo] | – | decrease | increase | – | – | not to induce | –
CCCc1cc(C)[nH]c(=O)c1CNC(=O)c1cc(-c2ccc(N3CCN(C(C)C)CC3)nc2)cc2c1cnn2C(C)C [UNC1999] | – | – | – | – | – | – | less selective
Cc1nc2c(-c3cnc(N)nc3)nc(N3CCOCC3)nc2n1C(C)C [VS-5584] | – | – | – | – | – | not to induce | –
Nc1ccc(C(=O)Nc2cccc(-c3nc(N4CCOCC4)c4oc5ncccc5c4n3)c2)cn1 [YM201636] | – | decrease | increase | – | – | – | –
